Laboratory results: article PMC3281113, “Recognition of Anesthetic Barbiturates by a Protein Binding Site: A High Resolution Structural Analysis” (PLoS ONE, 2012)
Read-outs that look alike come from different tables or passages of the source.

Columns and labels:
horse spleen apoferritin = target: T1, horse spleen apoferritin (Equus caballus, UniProt P02791); assay: isothermal titration calorimetry; format: binding
T1 construct: gene FTL; native spleen apoferritin from Sigma-Aldrich, 24-mer, heavy and light chains in approximate mole ratio 1:6; with Ferritin heavy chain
T1 sequence (P02791 2-175): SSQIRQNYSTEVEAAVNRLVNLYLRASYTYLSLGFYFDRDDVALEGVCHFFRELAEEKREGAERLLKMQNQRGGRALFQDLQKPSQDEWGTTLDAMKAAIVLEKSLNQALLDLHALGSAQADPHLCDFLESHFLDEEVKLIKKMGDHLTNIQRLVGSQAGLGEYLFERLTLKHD

[1] = target: the molecule itself; assay: crystal structure; apoferritin co-crystallized with thiopental or pentobarbital; reservoir 0.2-1.6 M (NH4)2SO4, 0.1-0.275 M CdSO4, 18°C; space group F432

Molecule: CCC[C@@H](C)C1(CC)C(=O)NC(=S)NC1=O [R-form of thiopental]
- Kd (horse spleen apoferritin; read-out: K d): 29.3 ± 3.1 µM

Molecule: CCCC(C)C1(CC)C(=O)NC(=O)NC1=O (racemic) [Pentobarbital]
- Kd (horse spleen apoferritin): 64.3 ± 5.5 µM

Molecule: CCC[C@H](C)[C@@]1(CC)C(=O)N=C(S)NC1=O [S-enantiomer of thiopental]
- Kd (horse spleen apoferritin; read-out: K d): 18.7 ± 0.9 µM

Molecule: CCCC(C)C1(CC)C(=O)NC(=S)NC1=O (racemic) [Thiopental]
- Kd (horse spleen apoferritin; read-out: Thiopental): 11 ± 0.9 µM

B1: horse spleen apoferritin (natural protein, UniProt P02791 1-175, looked up)
chain: MSSQIRQNYSTEVEAAVNRLVNLYLRASYTYLSLGFYFDRDDVALEGVCHFFRELAEEKREGAERLLKMQNQRGGRALFQDLQKPSQDEWGTTLDAMKAAIVLEKSLNQALLDLHALGSAQADPHLCDFLESHFLDEEVKLIKKMGDHLTNIQRLVGSQAGLGEYLFERLTLKHD
notes: ferritin light chain of horse spleen apoferritin; only the light chain is modelled in the structures; The commercial apoferritin is a mixture of heavy and light chains in an approximate mole ratio of 1:6; Only the light chain is seen in the electron density, so the 24-mer is written here as light chains only; also called L-chain; L-protomers; source: bought: Sigma-Aldrich; purified by gel …
- stoichiometry N [1]: 24
